{"source": "patent US20240269120A1", "about": "“Method for Treating an Autoimmune and Inflammatory Disease” (Cellestia Biotech AG, priority 2021, published 2024)", "key": {"Treg cells": {"system": "Treg cells", "test": "Treg expansion in activated human PBMC cultures (anti-CD3/anti-CD28, flow cytometry)", "format": "cell-based", "settings": "anti-CD3 and anti-CD28, 96 hours, control 0%", "protocol": "(§1) Human PBMCs and mouse splenocyte in vitro stimulation and treatment: Human peripheral blood mononuclear cells (PBMCs) and mouse splenocytes from donors were stimulated in vitro with anti-CD3 and anti-CD28 antibodies. The stimulated cells were simultaneously treated with compounds for 96 hours. The T cells were profiled for different cell surface and intracellular markers and proliferation by flow cytometry.\n(§2) Flow cytometry analysis: Flow cytometry analysis was performed to quantify cell surface and intracellular markers expression and measure cell division index.\nViability staining: Cells were transferred into a 96 well conical bottom plate and washed with serum free PBS1×. Cells were incubated with Zombie NIR (Biolegend #423105)+FC block ([…]) for 20 minutes at 4° C. Cells were washed with staining medium (SM) (1×HBSS, 2.5 mM EDTA, 2% NBS\nCell surface marker staining: Cells were stained with antibodies against cell surface markers (CD3, CD4, CD8, CD25, Biolegend or ThermoFisher) for 20 minutes at 4° C. Cells were washed with SM before continuing with nuclear staining.\nFOXP3 nuclear staining: Cells were fixed and permeabilized with Foxp3 Transcription Factor Staining Buffer Set (ThermoFisher #00-5523) for 20 minutes at room temperature. […] Results are finally analysed with the software FlowJo v.10.7.1."}, "IL-10 mRNA": {"system": "IL-10 mRNA", "test": "Quantitative RT-PCR of splenocyte mRNA after in vivo dosing: IL-10", "design": "species or system mouse", "settings": "in vivo treated mice vs vehicle; p<0.05; FIG. 3", "protocol": "FIG. 3: In vivo 6-(4-tert-butylphenoxy)pyridin-3-amine dosing leads to an upregulation of anti-inflammatory cytokine IL-10 mRNA in mouse spleen. […] Each bar represents the mean±SD (N=3 replicates). (*) p<0.05\nIn vivo treatment of mice and pharmacodynamic response: Mice experiments were performed in compliance with authorization to perform animal experiments (VD3323). Briefly, 6-8 weeks old wild type C57Bl6 mice were subcutaneously or intraperitoneally dosed with vehicle or compounds for different durations. Mice were sacrificed, spleens were harvested 24 hours post-last dosing. Splenocytes were analyzed for cell surface and intracellular markers expression using flow cytometry. RNA expression analyses were performed using quantitative real time PCR."}, "activated CD8 T cells": {"system": "activated CD8 T cells", "test": "Cell proliferation assay (Cell trace violet), activated CD8 T cells", "format": "cell-based", "settings": "control 0%", "protocol": "Following PBMC injections, mice were treated with vehicle or 6-(4-tert-butylphenoxy)pyridin-3-amine or Ruxolitinib starting at day 0. Mice were monitored from 60-85 days for symptoms of GvHD and scored according to a standard clinical scoring system for GvHD (Naserian et al., 2018) (see table 1) and a cumulative clinical score was obtained by addition of clinical score for individual parameters. A maximum score of 6 is measured when reaching endpoint. Cell proliferation assay: The effect of compounds on T cell proliferation was quantified using Cell trace violet (CTV). PBMCs/splenocytes were incubated with CTV for 20 minutes at 37° C. Cells were washed twice with RPMI complete medium. CTV labelled cells were stimulated with anti-CD3 and anti-CD28 antibodies and treated with control or compounds and cultured at 37° C. for 96 hours. The cell division index was measured by flow cytometry.\nas §2"}, "IL-6 [1]": {"system": "IL-6", "test": "ELISA of supernatant from activated human PBMC cultures: IL-6", "format": "cell-based", "settings": "control 0%", "protocol": "as §1\n(§3) ELISA assay: Supernatant from activated human PBMC cultures described above was separated from cells at the end of culture time. Key cytokines (IL-6, IFN-γ, IL-17) were quantified using sandwich ELISA reagents set (Diaclone) following manufacturer's instruction manual."}, "IL-17 [2]": {"system": "IL-17", "test": "ELISA of supernatant from activated human PBMC cultures: IL-17", "format": "cell-based", "settings": "control 0%", "protocol": "as §1, §3"}, "IFNG": {"system": "IFNG", "test": "ELISA of supernatant from activated human PBMC cultures: IFNG", "format": "cell-based", "settings": "control 0%", "protocol": "as §1, §3"}, "IL-6 [3]": {"system": "IL-6", "test": "Cytokine profiling in human patient plasma (MSD): IL-6", "format": "in vivo", "settings": "human patients, day 3 on treatment vs baseline pre-treatment", "protocol": "Cytokine profiling in human plasma samples: Plasma samples from patients treated with 6-(4-tert-butylphenoxy)pyridin-3-amine were collected and stored at −80° C. until analysed. Cytokine and chemokine profiling was performed using MesoScale Discovery (MSD) platform and three assay panels: 1) Pro-inflammatory panel human, 2) Human IL-6 assay S-Plex, 3) Human IL-10 assay S-Plex."}, "[4]": {"system": "NSG mice injected with human PBMCs (GvHD)", "test": "Humanized GvHD mouse model, ex vivo treated human PBMCs, no in vivo treatment", "design": "GvHD clinical score: Body weight loss: dose or concentration left out as unconfirmed", "settings": "day 21", "protocol": "Humanized GvHD mouse model: 6-8 weeks old NSG mice were intraperitoneally injected with 10 million human peripheral blood mononuclear cells (PBMCs) as below:\nEx vivo treatment of PBMCs: 10 million human PBMCs from healthy donor #1 were ex-vivo treated with DMSO and […] of 6-(4-tert-butylphenoxy)pyridin-3-amine for 6 hours. Ex-vivo treated PBMCs were intraperitoneally injected into mice (10 million per mouse). 10 NSG mice were injected with DMSO pre-treated PBMCs and 10 NSG mice were injected with 6-(4-tert-butylphenoxy)pyridin-3-amine pre-treated PBMCS. Following PBMC injections mice were monitored for up to 42 days for symptoms of GvHD development as measured by standardized GvHD clinical score system. No in-vivo drug treatment was administered.\nA cumulative GvHD clinical score was calculated by addition of scores for individual parameters (e.g. cumulative score=BWL+posture+activity+fur texture+skin integrity+paleness)."}, "IL-17 [5]": {"system": "IL-17", "test": "Cytokine analysis in allogeneic bone marrow transplant (LEGENDplex): IL-17", "format": "in vivo, mouse", "settings": "allo-BM+splenocyte transplanted mice, day 36, vs vehicle; FIG. 6", "protocol": "(§4) Allogeneic Bone marrow transplant: Recipient Balb/c mice were irradiated twice 3.75Gy (T=0 and T=4 h) in an X-ray source irradiator before transplantation at T=8 h. Treatment with antibiotics (Nopil) and analgesic (Dafalgan) was supplemented to drinking water 4 days before injection. Irradiated recipient Balb/c mice were transplanted with 5 million T cell depleted bone marrow+1 million splenocytes. Allogeneic recipient animals were treated with vehicle or 6-(4-tert-butylphenoxy)pyridin-3-amine subcutaneously at 20 mg/kg for two days immediately after allo-BM transplant, given a 10 days treatment holiday to recover body weight loss due to whole body irradiation and then treatment continued at 20 mg/kg. […] Animals were monitored for symptoms of GvHD development (severe body weight loss, alopecia and diarrhea.\n(§5) Cytokine analysis in allogeneic Bone marrow transplant: The recipient animals were bled on day 36 and blood plasma was extracted to determine inflammatory cytokine concentration (IFNγ, IL-6, IL-17a) by LEGENDplex™ multiplexed assay."}, "IL-6 [6]": {"system": "IL-6", "test": "Cytokine analysis in allogeneic bone marrow transplant (LEGENDplex): IL-6", "format": "in vivo, mouse", "settings": "allo-BM+splenocyte transplanted mice, day 36, vs vehicle; FIG. 6", "protocol": "as §4, §5"}, "regulatory T cells": {"system": "regulatory T cells", "test": "Regulatory T cells in allo-BM + splenocyte transplanted mice", "format": "in vivo, mouse", "protocol": "as §4"}, "[7]": {"settings": "PBMCs pre-treated ex-vivo, DMSO group 0.71"}}, "note": "Where “and” joins values, the source holds several entries; their conditions need not be identical. Identical values can stand only once."}
{"smiles": "CC(C)(C)c1ccc(Oc2ccc(N)cn2)cc1", "note": "[6-(4-tert-butylphenoxy)pyridin-3-amine]", "values": [{"measurement": "expansion of Treg cells", "setting": "Treg cells", "value": 112, "unit": "%"}, {"measurement": "IL-10 transcript in splenocytes", "setting": "IL-10 mRNA", "value": "upregulation"}, {"measurement": "Percentage inhibition of CD8 T cells (proliferation)", "setting": "activated CD8 T cells", "value": 56, "unit": "%"}, {"measurement": "Percentage downregulation of IL-6", "setting": "IL-6 [1]", "value": 61, "unit": "%"}, {"measurement": "Percentage downregulation of IL-17", "setting": "IL-17 [2]", "value": 38, "unit": "%"}, {"measurement": "Percentage downregulation of IFNG", "setting": "IFNG", "value": 10, "unit": "%"}, {"measurement": "Percentage downregulation of IL-6 in blood plasma", "setting": "IL-6 [3]", "value": "57% (day 3 on treatment)"}, {"measurement": "GvHD clinical score: Body weight loss", "setting": "[4]; PBMCs pre-treated ex-vivo (6 hours), DMSO group 1.0", "value": 0}, {"measurement": "GvHD clinical score: Skin integrity", "setting": "[4]; PBMCs pre-treated ex-vivo, DMSO group 0.14", "value": 0}, {"measurement": "GvHD clinical score: Fur texture", "setting": "[4]; PBMCs pre-treated ex-vivo, DMSO group 0.57", "value": 0.14}, {"measurement": "GvHD clinical score: Activity score", "setting": "[4]; [7]", "value": 0.14}, {"measurement": "GvHD clinical score: Paleness", "setting": "[4]; [7]", "value": 0}, {"measurement": "GvHD clinical score: Posture", "setting": "[4]; [7]", "value": 0.14}, {"measurement": "Cumulative GvHD score", "setting": "[4]; sum of individual scores, DMSO group 3.84", "value": "decreased cumulative GvHD score significantly and 0.42"}, {"measurement": "IL-17 in blood plasma", "setting": "IL-17 [5]", "value": "downregulation"}, {"measurement": "IL-6 in blood plasma", "setting": "IL-6 [6]", "value": "downregulation"}, {"measurement": "regulatory T cells", "setting": "regulatory T cells", "value": "expansion of regulatory T cells"}]}
